Results: ChEMBL document CHEMBL1201862, “PubChem BioAssay data set” (2004)
Values belong to the compound of their own block, whether it stands above or below them. Active and inactive are the calls of the source.

What was measured:
[1] = biological target: T1, Cytochrome P450 1A2 (Homo sapiens, UniProt P05177);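 note: PubChem cytochrome P450 panel assay, CYP1A2 panel member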
T1 sequence (P05177 whole entry): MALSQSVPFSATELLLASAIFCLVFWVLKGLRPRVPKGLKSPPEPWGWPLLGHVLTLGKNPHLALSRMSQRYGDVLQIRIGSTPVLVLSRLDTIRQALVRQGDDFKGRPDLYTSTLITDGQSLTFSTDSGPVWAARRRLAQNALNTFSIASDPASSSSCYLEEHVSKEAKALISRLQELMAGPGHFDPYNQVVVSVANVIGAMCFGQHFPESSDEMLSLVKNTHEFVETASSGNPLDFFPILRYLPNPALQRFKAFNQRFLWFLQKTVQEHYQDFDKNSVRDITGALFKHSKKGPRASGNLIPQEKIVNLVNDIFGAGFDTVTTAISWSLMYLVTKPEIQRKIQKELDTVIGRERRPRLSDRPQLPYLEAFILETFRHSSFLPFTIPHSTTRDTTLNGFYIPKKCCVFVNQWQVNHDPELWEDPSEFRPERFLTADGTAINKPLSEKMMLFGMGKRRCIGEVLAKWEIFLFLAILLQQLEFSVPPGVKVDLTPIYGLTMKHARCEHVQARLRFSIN

[2] = biological target: Cytochrome P450 2C9 (Homo sapiens, UniProt P11712)
[3] = NIH-3T3 fibroblast cytotoxicity, dose response, cytotoxicity control, cell-based, fluorescence, Alamar Blue, secondary assay (AID 2327); assay type: functional;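 note: NIH-3T3 mouse fibroblasts cultured with fluconazole at 8 µg/mL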
[4] = biological target: Cytochrome P450 3A4 (Homo sapiens, UniProt P08684);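 note: CYP3A4 tested as one member of a cytochrome P450 panel screen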
[5] = fluconazole-exposed Candida albicans growth modulators – fluorescence, retest, confirmation (AID 2467); assay type: functional, cell-based
[6] = Trypanosoma cruzi growth suppression in host cells – NIH3T3 host cells, beta-gal luminescence, confirmation (AID 2044); assay type: functional, cell-based;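 note: intracellular parasites grown in NIH/3T3 mouse fibroblasts as host cells; luminescent beta-galactosidase reporter signal from transgenic T. cruzi replicating inside host cells; inhibitors lower the luminescence signal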
[7] = NIH3T3 cell viability loss – ATP luminescence, mouse fibroblasts, counter-screen, dose response (AID 2010); assay type: functional, cell-based;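 note: cells exposed to compound for about 90 hours before reading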
[8] = biological target: Cytochrome P450 2C19 (Homo sapiens, UniProt P33261); test: Cytochrome panel assay with activity outcomes. Panel member name: p450-cyp2c19 Compounds with AC50 equal or less than 10 uM are considered active; assay type: functional
[9] = biological target: T2, Corticotropin-releasing factor receptor 2/Corticotropin-releasing factor-binding protein (Homo sapiens, UniProt P24387+Q13324); test: activators of CRF receptor 2 with binding protein – uHTS hits, confirmation (AID 602473); assay type: functional; details: read-out: EC50_Mean
T2 sequence (Q13324 whole entry): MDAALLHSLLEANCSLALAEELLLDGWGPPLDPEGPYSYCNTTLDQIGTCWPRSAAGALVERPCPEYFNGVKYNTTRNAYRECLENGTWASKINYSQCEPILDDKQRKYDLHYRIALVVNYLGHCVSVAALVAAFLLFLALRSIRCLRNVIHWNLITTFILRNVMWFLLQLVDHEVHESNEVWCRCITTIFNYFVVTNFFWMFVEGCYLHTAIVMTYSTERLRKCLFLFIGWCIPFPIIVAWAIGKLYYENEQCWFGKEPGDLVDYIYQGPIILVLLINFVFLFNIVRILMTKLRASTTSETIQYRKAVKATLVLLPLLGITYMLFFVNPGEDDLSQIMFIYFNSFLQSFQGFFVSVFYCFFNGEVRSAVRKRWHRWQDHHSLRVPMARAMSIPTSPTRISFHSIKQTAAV
T2 sequence (P24387 whole entry): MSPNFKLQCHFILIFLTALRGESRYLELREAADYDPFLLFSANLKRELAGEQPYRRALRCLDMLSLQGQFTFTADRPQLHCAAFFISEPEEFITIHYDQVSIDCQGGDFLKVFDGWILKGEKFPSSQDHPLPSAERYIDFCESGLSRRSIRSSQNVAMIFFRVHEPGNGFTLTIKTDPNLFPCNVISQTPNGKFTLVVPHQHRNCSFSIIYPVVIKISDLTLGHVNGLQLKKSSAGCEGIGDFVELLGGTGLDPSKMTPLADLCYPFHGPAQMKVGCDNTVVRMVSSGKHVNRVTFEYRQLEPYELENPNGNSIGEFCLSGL

Chain of Cytochrome P450 2C9 (P11712 whole entry): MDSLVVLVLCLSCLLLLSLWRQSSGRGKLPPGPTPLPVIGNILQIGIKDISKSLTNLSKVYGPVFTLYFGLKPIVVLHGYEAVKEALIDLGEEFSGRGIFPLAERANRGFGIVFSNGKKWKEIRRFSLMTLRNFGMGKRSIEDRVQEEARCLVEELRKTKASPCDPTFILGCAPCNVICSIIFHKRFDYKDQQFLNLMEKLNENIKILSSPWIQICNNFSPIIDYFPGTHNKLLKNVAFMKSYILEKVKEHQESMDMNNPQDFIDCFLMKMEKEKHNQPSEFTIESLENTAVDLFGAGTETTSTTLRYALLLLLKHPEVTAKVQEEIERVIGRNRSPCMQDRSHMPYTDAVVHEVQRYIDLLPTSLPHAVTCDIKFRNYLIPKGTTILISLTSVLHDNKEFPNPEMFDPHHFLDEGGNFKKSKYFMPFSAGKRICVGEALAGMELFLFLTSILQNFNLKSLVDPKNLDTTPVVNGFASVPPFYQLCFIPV
Chain of Cytochrome P450 2C19 (P33261 whole entry): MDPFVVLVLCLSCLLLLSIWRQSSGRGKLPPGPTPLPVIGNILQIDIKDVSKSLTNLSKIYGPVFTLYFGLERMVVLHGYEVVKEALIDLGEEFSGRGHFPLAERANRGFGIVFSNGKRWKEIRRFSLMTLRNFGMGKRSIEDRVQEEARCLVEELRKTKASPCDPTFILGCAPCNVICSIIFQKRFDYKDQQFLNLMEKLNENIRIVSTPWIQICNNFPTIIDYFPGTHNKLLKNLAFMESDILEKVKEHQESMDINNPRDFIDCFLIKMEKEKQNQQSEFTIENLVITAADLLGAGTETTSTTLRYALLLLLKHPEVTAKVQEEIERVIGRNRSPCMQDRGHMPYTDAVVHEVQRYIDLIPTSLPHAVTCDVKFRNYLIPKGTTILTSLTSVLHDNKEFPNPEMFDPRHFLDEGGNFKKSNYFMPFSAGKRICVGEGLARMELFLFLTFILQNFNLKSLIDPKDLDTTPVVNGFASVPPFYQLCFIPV
Chain of Cytochrome P450 3A4 (P08684 whole entry): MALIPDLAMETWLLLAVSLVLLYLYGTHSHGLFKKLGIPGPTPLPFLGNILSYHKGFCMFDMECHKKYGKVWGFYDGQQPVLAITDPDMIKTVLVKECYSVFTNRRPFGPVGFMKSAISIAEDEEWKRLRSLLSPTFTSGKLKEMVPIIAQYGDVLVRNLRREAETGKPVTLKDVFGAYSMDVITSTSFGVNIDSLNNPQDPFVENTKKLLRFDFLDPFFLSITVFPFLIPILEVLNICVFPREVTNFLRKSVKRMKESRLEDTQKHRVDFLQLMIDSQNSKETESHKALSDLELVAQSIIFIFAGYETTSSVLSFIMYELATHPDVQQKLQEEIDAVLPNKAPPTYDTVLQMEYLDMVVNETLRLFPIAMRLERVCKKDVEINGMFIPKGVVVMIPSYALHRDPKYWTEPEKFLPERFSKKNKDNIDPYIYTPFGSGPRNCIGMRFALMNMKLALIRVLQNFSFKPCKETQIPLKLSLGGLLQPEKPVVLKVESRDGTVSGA

SMILES: Cc1cccc(C)c1NC(=S)NC(=O)CCc1ccccc1
AC50 [1]: 22.4 µM (inconclusive)
AC50 [2]: 25.1 µM (inconclusive)

SMILES: CCCCNC(=O)c1cn(C)c2ccc(S(=O)(=O)N3CCCC3)cc2c1=O
EC50 [3]: > 150 µM (inactive)

SMILES: C/C(O)=C(/C#N)C(=O)Nc1cc(Br)ccc1Br
AC50 [4]: 15.8 µM (inconclusive)

SMILES: Cc1c(Nc2scc(-c3ccccc3)[n+]2-c2ccccc2)c(=O)n(-c2ccccc2)n1C
EC50 [3]: 18 µM (active)
EC50 [5]: 0.111 µM (active)

SMILES: COc1ccc(-n2c(=O)c(-c3cccs3)nc3cnc(Nc4ccccc4)nc32)cc1
AC50 [1]: 31.6 µM (inconclusive)

SMILES: COCCCn1c(SCc2ccccc2)nc2cc(OC)c(OC)cc2c1=N
EC50 [6]: 1.69 µM (active)
EC50 [7]: 11.5 µM (active)

SMILES: O=C1NCCc2c1[nH]c1ccccc21
AC50 ([8]; read-out: AC50): 15.8 µM (inconclusive)

SMILES: COc1ccccc1CN1CCCC2(CCN(C(=O)Oc3ccccc3)CC2)C1
AC50 [4]: 15.8 µM (inconclusive)

SMILES: O=C(COC(=O)c1cnccn1)NCc1ccccc1
AC50 [2]: 12.6 µM (inconclusive)
AC50 ([8]; read-out: AC50): 39.8 µM (inconclusive)

SMILES: OCC[n+]1ccc(/C=C/c2c[nH]c3ccccc23)cc1
EC50 [9]: 8.55 µM (active)

SMILES: CCc1ccc(-n2nnnc2SCC(=O)Nc2ccc(NC(C)=O)cc2)cc1
EC50 [6]: 2.19 µM (active)
EC50 [7]: > 60 µM (not active)

SMILES: NC(=S)N/N=C/c1ccc(-n2nncc2-c2ccc(Cl)cc2)cc1
EC50 [6]: 1.64 µM (active)
EC50 [7]: > 60 µM (not active)

SMILES: C=CCc1cccc(/C=N/NC(=O)c2ccccc2Br)c1O
EC50 [6]: 1.72 µM (active)
EC50 [7]: 8.77 µM (active)

SMILES: Cc1cccc2cc(CN(Cc3cccnc3)C(=O)c3ccccc3F)c(Cl)nc12
EC50 [6]: 0.204 µM (active)
EC50 [7]: > 60 µM (not active)

SMILES: Brc1ccc(CSc2nnc(-c3cnccn3)n2Cc2ccco2)cc1
EC50 [3]: > 160 µM (inconclusive)
EC50 [5]: 1.58 µM (active)

SMILES: CC(CCc1ccccc1)NC(=O)C(=O)NCCO (centres undefined)
AC50 [2]: 0.794 µM (inconclusive)

SMILES: O=C(Nc1ccncc1)Nc1cc(Cl)ccc1Cl
EC50 [6]: 0.469 µM (active)
EC50 [7]: > 30 µM (not active)

SMILES: Cc1c(C(=O)Nc2cccc(Cl)c2)c2ccccn2c1CCc1ccncc1
EC50 [6]: 1.19 µM (active)
EC50 [7]: > 30 µM (not active)

SMILES: CCC(=O)Nc1cccc(NC(=O)c2cccc([N+](=O)[O-])c2)c1
AC50 [2]: 17.8 µM (inconclusive)
AC50 [8]: inconclusive

SMILES: COc1cccc(CN(C(=O)c2cc3ccccc3oc2=O)C2CC2)c1
EC50 [3]: 18.6 µM (inconclusive)
EC50 [5]: > 38 µM (not active)

SMILES: Cc1cccc2c1Oc1ccccc1[C@@H]2NC(=O)c1ccc([N+](=O)[O-])cc1
AC50 [2]: 7.94 µM (inconclusive)

SMILES: O=C(Nc1cccc(C(F)(F)F)c1)c1cccnc1
EC50 [3]: > 160 µM (inactive)
EC50 [5]: 4.39 µM (active)

SMILES: Cc1nn(Cc2ccc(Cl)cc2)c(C)c1NC(=O)CCCn1nc([N+](=O)[O-])c(Cl)c1C
EC50 [6]: 0.318 µM (active)
EC50 [7]: > 30 µM (not active)

SMILES: Cc1ccc(C(=O)CC(=O)c2ccc(C(C)(C)C)cc2)cc1
EC50 [3]: > 160 µM (inactive)
EC50 [5]: > 38 µM (not active)

SMILES: Cc1ccc(C)c(S(=O)(=O)NC(CC(C)C)C(=O)O)c1 (centres undefined)
AC50 ([8]; read-out: AC50): 39.8 µM (inconclusive)

SMILES: CCCC[C@H]1C[C@@H]1[C@@H]1N(P(=O)(c2ccccc2)c2ccccc2)[C@](CO)(c2ccccc2)CC12CC2
AC50 ([8]; read-out: AC50): 7.94 µM (inconclusive)

SMILES: CC(=O)NC(NC(C)=O)c1ccc(Br)cc1
AC50 [1]: 10 µM (inconclusive)

SMILES: O=[N+]([O-])c1ccc2[nH]c(-[n+]3c(-c4ccccc4)cc(-c4ccccc4)cc3-c3ccccc3)nc2c1
EC50 [6]: 1.18 µM (active)
EC50 [7]: > 60 µM (not active)

SMILES: O=C(C1=C[C@@H](c2csc3ccccc23)C[C@@H](OCc2ccc(CO)cc2)O1)N1CCN(Cc2ccccc2)CC1
EC50 [6]: 0.888 µM (active)
EC50 [7]: > 60 µM (not active)

SMILES: Cc1cc(C(=O)N[C@@H](c2ccccc2)[C@]2(C)C[C@H]2[C@@H](C)C(=O)Nc2ccc3ccccc3c2)n(C)n1
AC50 [1]: 12.6 µM (inconclusive)

SMILES: COC(=O)c1cc2c(ccn2-c2ccc(F)cc2)n1Cc1ccc(OC(C)=O)cc1
EC50 [6]: 2.84 µM (active)
EC50 [7]: > 60 µM (not active)

SMILES: Cc1onc(-c2ccccc2)c1CNC(=O)Nc1ccc(C(F)(F)F)cc1
EC50 [6]: 4.33 µM (active)
EC50 [7]: > 60 µM (not active)

SMILES: CC(C)CN(C(=O)c1cc([N+](=O)[O-])cc([N+](=O)[O-])c1)C1CCS(=O)(=O)C1 (centres undefined)
EC50 [6]: 1.31 µM (active)
EC50 [7]: > 30 µM (not active)

SMILES: O=C(CSc1nc(=O)n2ccccc2n1)N1N=C(c2cccs2)CC1c1ccc(F)cc1 (centres undefined)
EC50 [6]: 1.51 µM (active)
EC50 [7]: > 60 µM (not active)

SMILES: Cc1ccc(S(=O)(=O)c2nc(NCc3ccc4c(c3)OCO4)sc2Cl)cc1
EC50 [6]: 0.39 µM (active)
EC50 [7]: > 60 µM (not active)

SMILES: CC1=CC(=C(C#N)c2nc3ccccc3s2)C=C(C)N1c1ccc(F)cc1F
EC50 [9]: 10.2 µM (active)

SMILES: COC(=O)c1[nH]c2ccccc2c1NC(=O)CN1CCCc2ccccc21
EC50 [6]: 0.89 µM (active)
EC50 [7]: > 60 µM (not active)

SMILES: COc1ccc(CN2CCN(Cc3nc4ccccc4s3)CC2CCO)c(C)c1C (centres undefined)
EC50 [6]: 0.132 µM (active)
EC50 [7]: > 60 µM (inconclusive)

SMILES: COc1ccc(OC)c(CN2CCN(C(=O)CCNC(=O)c3ccc(Br)cc3)CC2)c1
EC50 [6]: 0.563 µM (active)
EC50 [7]: > 60 µM (not active)

SMILES: O=C(/C=C\c1ccc(-c2cccc([N+](=O)[O-])c2)o1)N1CCOCC1
EC50 [3]: > 150 µM (inactive)
EC50 [5]: > 38 µM (not active)

Further lines, results first:

AC50 [4]: 25.1 µM (inconclusive)
SMILES: C=CC/N=C1\CC(C)(C)CC(O)=C1C(=O)c1ccccc1

AC50 [4]: 22.4 µM (inconclusive)
SMILES: COc1ccccc1C(=O)O/N=C1/CCCc2c1ccc(OC)c2[N+](=O)[O-]

AC50 [4]: 7.94 µM (inconclusive)
SMILES: Cc1ccc(S(=O)(=O)n2ccc(-c3cccc(OCc4c(F)cccc4Cl)c3)n2)cc1

AC50 [4]: 3.98 µM (inconclusive)
SMILES: Cc1ccccc1CN1C2=NCCN2C(=O)C2=C1CCN(Cc1ccccc1)C2

AC50 [2]: 0.891 µM (inconclusive)
SMILES: CC1CCN(CCOc2cc(Cl)ccc2Cl)CC1

AC50 [2]: 31.6 µM (inconclusive)
SMILES: CC(C)(Oc1ccc([C@@H]2CC2(Cl)Cl)cc1)C(=O)O

AC50 [1]: 15.8 µM (inconclusive)
SMILES: Cc1ccc(COc2coc(CO)cc2=O)cc1

EC50 [9]: 6 µM (active)
SMILES: Cc1cc(Cl)ccc1OC(C)C(=O)Nc1ccccc1N1CCOCC1 (centres undefined)

AC50 [2]: 25.1 µM (inconclusive)
AC50 ([8]; read-out: AC50): 25.1 µM (inconclusive)
SMILES: CC(C)CNS(=O)(=O)c1cc(C(=O)N2CC(C)OC(C)C2)c(Cl)cc1Cl (centres undefined)

AC50 [1]: 12.6 µM (inconclusive)
SMILES: N=C(N)NCc1cccc(I)c1 [IOBENGUANE]

EC50 [9]: > 53 µM (inactive)
SMILES: Cc1ccc2c3ncn(Cc4ccco4)c(O)c-3nc2c1

AC50 ([8]; read-out: AC50): 39.8 µM (inconclusive)
SMILES: COCC(=O)N1CCC2(CC1)CCN(c1cccc(-c3ccccc3)c1)CC2

AC50 ([8]; read-out: AC50): 39.8 µM (inconclusive)
SMILES: COCCn1c(=O)c(-c2cccc(C#N)c2)nc2cnc(Oc3ccccc3)nc21

AC50 [1]: 3.16 µM (inconclusive)
AC50 [2]: 25.1 µM (inconclusive)
SMILES: O=C(c1ccc2c(=O)n(Cc3ccco3)c(=S)[nH]c2c1)N1CCN(c2ccccc2)CC1

AC50 [1]: 31.6 µM (inconclusive)
SMILES: CC[N+](CC)(CC)CCOc1ccc(/C=C\c2ccccc2)cc1

AC50 [2]: 31.6 µM (inconclusive)
SMILES: Cc1ccc(C(=O)N2CCN(c3cc(O)nnc3-c3ccccc3)CC2)cc1

AC50 ([8]; read-out: AC50): 39.8 µM (inconclusive)
SMILES: Cc1cccc(OCC(=O)N2CCC(N3CCCCCC3)CC2)c1

AC50 ([8]; read-out: AC50): 22.4 µM (inconclusive)
SMILES: CN1CCN(S(=O)(=O)c2ccc3ncc(C(=O)O)c(O)c3c2)CC1

AC50 [2]: 31.6 µM (inconclusive)
AC50 ([8]; read-out: AC50): 35.5 µM (inconclusive)
SMILES: COc1ccccc1N(CC(=O)NCC1CCCO1)C(=O)CNS(=O)(=O)c1ccc(C)cc1 (centres undefined)
